Values of other authors as cited in patent US20120190734A1, “COMPOUNDS AND COMPOSITIONS FOR TREATING INFECTION” (priority 2011, published 2012).

Key:
[1] = test system: herpes simplex virus (HSV-2)
[2] = target: HIV-1 reverse transcriptase (Human immunodeficiency virus type 1 group M subtype B, UniProt P04585)

Molecule	anti-herpes simplex virus (HSV-2) activity in vitro [1]	effect on HIV-1 reverse transcriptase activity [2]	other results
O=C(O[C@@H]1O[C@@H]2COC(=O)c3cc(O)c(O)c(O)c3-c3c(cc(O)c(O)c3O)C(=O)O[C@H]2[C@H](OC(=O)c2cc(O)c(O)c(O)c2)[C@H]1OC(=O)c1cc(O)c(O)c(O)c1)c1cc(O)c(O)c(O)c1 [Eugeniin]	exhibited anti-herpes simplex virus (HSV-2) activity	–	–
COc1cc2cc3c(c(-c4ccc5c(c4)OCO5)c2cc1OC)COC3=O [retrojusticiden B]	–	inhibitory effect	–
Prunellin	–	–	minimum inhibition concentration against HIV-1 in vitro (HIV-1): 2.2 µg/mL
O=c1cc(-c2ccc(O)cc2)oc2cc(O)cc(O)c12 [5,7,4-truhydroxyflavone]	–	–	anti-influenza virus activity (influenza virus): anti-influenza virus activity
COCc1cc2cc(OC)c(OC)cc2c(-c2ccc3c(c2)OCO3)c1C=O [phyllamycin B]	–	inhibitory effect	–
COC(=O)c1cc(O)c(O)c(O)c1 [methyl gallate]	exhibited anti-herpes simplex virus (HSV-2) activity	–	–
